# Measured values taken from patent publication EP3884941A1, “INFLAMMASOME INHIBITORS AND USE THEREOF” (CENTRO DE INVESTIGACION PRINCIPE FELIPE, priority 2020, dated 2021).
# What was measured:
# caspase-9 = target: T1, caspase-9 (Homo sapiens, UniProt P55211); assay: caspase-9 activity assay (Na-citrate pre-activated); format: biochemical; conditions: recombinant caspase-9; MM01 5 µM (Figure 2B)
# T1 sequence (P55211 1-416): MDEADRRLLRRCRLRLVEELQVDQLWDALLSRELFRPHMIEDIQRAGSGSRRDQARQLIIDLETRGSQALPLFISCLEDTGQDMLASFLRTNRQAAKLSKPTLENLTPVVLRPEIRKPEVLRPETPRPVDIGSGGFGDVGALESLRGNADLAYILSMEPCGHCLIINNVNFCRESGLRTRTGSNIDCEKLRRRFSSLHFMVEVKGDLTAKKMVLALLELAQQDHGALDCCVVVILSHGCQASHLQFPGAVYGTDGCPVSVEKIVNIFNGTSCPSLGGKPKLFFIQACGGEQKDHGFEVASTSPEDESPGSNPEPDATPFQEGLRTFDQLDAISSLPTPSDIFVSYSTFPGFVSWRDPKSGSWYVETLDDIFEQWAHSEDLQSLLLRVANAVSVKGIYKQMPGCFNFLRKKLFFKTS
# Protocol: Caspase-9 was activated with kosmotropic salts, in particular with Na-citrate. Briefly, 5 µM caspase-9 was pre-activated for 20 min in SC buffer (50 mM Na2HPO4, 150 mM NaCl, 1.5% sucrose, 0.05% CHAPS, 10 mM DTT, 0.7 M Na-citrate, pH 7.4) at RT. Once pre-activated, the complete reaction was diluted to 100 nM caspase-9 in assay buffer without Na-Citrate and incubated 20 min at RT in the presence or absence of compounds. Enzyme activity was monitored by adding the Ac-LEHD-afc substrate (40 µM) using a Victor 2 spectrofluorimeter.
# AIM2 inflammasome = AIM2 inflammasome activation, poly(dA:dT), PMA-differentiated THP-1 cells; format: cell-based, human; conditions: PMA-differentiated THP-1, poly(dA:dT) 200 µg/ml; MM01 10 µM
# Protocol: The materials and methods employed in these experiments are now described. The molecules were evaluated in the THP-1, or PMA-differentiated THP-1 cells (50 nM PMA for 24h) as described in Example 3. To stimulate NLRP1 inflammasome, cells were either mock-treated or primed with compounds at the indicated concentrations for 30 min, followed by treatment with 100 ng/mL LPS (Sigma) and 50 µg/ml MDP (Sigma) for 6 h at 37°C. In the case of NLRC4 inflammasome induction, cells were pretreated with the compounds for 30 min and then cells were stimulated for 3 h with Salmonella Typhimurium (MOI 5). To induce AIM2 inflammasome, cells were pretreated in the same conditions as before and transfected with poly(dA:dT) (200 µg/ml; Sigma) overnight using Lipofectamine 2000 (Invitrogen). Both IL-1β secretion and the release of IL-18 were monitored as previously described in Example 3.
# [1] = test system: ASC specks in THP1-ASC-GFP cells; assay: ASC speck assay; format: cell-based, human; conditions: THP-1 ASC GFP, LPS 100 ng/mL + nigericin 10 µM; MM01 10 µM, VX-765 5 µM
# Protocol: THP1-ASC-GFP cells were seeded at 1×10^6/ml the day prior to use in experiments on 35 mm glass-bottom culture dishes. The following day medium was replaced containing the indicated inhibitors or vehicle for 30 min. Cells were then primed with 100 ng/ml LPS for 3h and stimulated with 10 µM nigericin for 30 min. Samples were fixed in 4% paraformaldehyde (PFA) for 10 min at RT and washed several times. Coverslips were prepared in mounting medium plus DAPI and analyzed in a Leica SP8 confocal microscope.
# Apoptosome = target: T2, Apoptosome (Homo sapiens, UniProt O14727); assay: Apoptosome activity assay; format: biochemical; conditions: reconstituted in vitro; MM01 5 µM (Figure 2C)
# T2 sequence (O14727 1-1248): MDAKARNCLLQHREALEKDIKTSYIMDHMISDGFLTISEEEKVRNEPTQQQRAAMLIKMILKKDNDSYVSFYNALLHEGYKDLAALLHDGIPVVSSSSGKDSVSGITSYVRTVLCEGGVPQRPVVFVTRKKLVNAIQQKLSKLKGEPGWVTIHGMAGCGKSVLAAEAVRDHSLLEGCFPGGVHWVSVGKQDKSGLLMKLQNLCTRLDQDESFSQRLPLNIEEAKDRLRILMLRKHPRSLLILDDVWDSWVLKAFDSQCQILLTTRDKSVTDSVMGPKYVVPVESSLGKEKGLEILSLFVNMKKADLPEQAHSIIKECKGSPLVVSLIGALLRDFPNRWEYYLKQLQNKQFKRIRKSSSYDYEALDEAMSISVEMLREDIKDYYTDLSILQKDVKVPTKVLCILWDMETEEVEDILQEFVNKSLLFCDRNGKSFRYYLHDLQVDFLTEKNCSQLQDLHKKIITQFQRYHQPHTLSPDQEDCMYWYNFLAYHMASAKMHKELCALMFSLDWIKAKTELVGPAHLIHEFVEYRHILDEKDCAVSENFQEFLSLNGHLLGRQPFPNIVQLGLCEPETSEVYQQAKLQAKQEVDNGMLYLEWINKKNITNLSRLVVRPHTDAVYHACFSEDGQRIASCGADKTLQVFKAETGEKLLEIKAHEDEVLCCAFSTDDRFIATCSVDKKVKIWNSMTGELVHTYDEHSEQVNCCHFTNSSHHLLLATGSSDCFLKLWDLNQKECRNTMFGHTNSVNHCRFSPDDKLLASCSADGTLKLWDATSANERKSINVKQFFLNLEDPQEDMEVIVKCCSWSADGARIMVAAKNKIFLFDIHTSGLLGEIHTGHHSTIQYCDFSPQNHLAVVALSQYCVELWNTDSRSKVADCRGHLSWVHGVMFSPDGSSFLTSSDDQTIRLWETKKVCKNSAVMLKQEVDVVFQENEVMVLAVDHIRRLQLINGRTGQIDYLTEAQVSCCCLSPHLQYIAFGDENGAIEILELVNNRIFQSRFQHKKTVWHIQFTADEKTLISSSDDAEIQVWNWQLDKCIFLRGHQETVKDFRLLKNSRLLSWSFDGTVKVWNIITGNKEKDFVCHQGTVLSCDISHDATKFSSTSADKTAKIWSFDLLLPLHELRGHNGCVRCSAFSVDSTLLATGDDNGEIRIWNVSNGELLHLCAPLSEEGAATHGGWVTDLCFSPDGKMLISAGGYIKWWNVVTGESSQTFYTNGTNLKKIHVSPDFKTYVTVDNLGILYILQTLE
# Protocol: Apoptosome was reconstituted by incubating rApaf-1 (100 nM) with vehicle (DMSO) or compounds in assay buffer (20 mM HEPES, 10 mMKCI, 1.5 mM MgCI2, 1 mM EDTA, 1 mM EGTA, 1 mM DTT, 0.1 mM PMSF) at 30°C for 30 min. Next, 100 µM dATP and 100 nM Cytc were added and incubated for additional 40 min. Then, caspase-9 (100 nM) was added, and activity was monitored by the Ac-LEHD-afc substrate (50 µM) using a Victor 2 spectrofluorimeter.
compound,measurement,setting,value
C=CCN1C(=O)/C(=C2/C(=O)Nc3ccccc32)SC1=S [MM01],caspase-9 activity,caspase-9,do not act on
same,IL-1β secretion,AIM2 inflammasome,significantly decreased
same,ASC speck formation,[1],inhibited
same,inhibition of the apoptosome,Apoptosome,No inhibition
